Format in all cases: cell-based
Test [1] deals with H1975. The test is described as follows: Cancer cell growth inhibition (CellTiter-Glo, 72 hours). Conditions: Homo sapiens, NCI-H1975, H1975 cells, read-out: GI50s (μM) H1975. The method, then:
(§1) Seeding 3000 cells per well in a 96-well plate. After cell stabilization, treat the cells with compounds diluted in 0.5% DMSO at a ⅓ serial dilution and culture for 72 hours. Following treatment with CellTiter-Glo, luminescence is produced only in the presence of ATP, as luciferase degrades luciferin. Luminescence values were measured using Envision (PerkinElmer). Based on the measured luminescence values, the concentration of compounds causing cell death was calculated to determine the GI50 value.
(§2) The activity values were categorized into three levels • A: IC50<1 μM • B: 1 μM≤IC50<10 μM, • C: IC50≥10 μM
(Cellular ATP, detected with luciferase, serves as a proxy for viable cell number.)

Test [2] relates to H23. Described as above. Conditions: Homo sapiens, NCI-H23, H23 cells, read-out: GI50s (μM) H23. The method, then: as §1, §2
Test [3] deals with H358. The description is as above. The settings on record: Homo sapiens, NCI-H358, H358 cells, read-out: GI50s (μM) H358. Here is the method:
as §1, §2

The test system of test [4] is HCT116. The description is as above. The settings on record: Homo sapiens, HCT-116, HCT116 cells, read-out: GI50s (μM) HCT116. Here is the method: as §1, §2
Test [5] deals with MDA-MB-231. The description is as above. Conditions: Homo sapiens, MDA-MB-231 cells, read-out: GI50s (μM) MDA-MB-231. Here is the method: as §1, §2
The subject of test [6] is colo205. The test is described as above. The settings on record: Homo sapiens, COLO 205, colo205 cells, read-out: GI50s (μM) colo205. The method, then:
as §1, §2

For test [7], the target named is T1, Ba/F3 FLT3 (ITD) (Homo sapiens, UniProt P36888, cells depend on it, form not given).
T1 sequence (P36888 1-993): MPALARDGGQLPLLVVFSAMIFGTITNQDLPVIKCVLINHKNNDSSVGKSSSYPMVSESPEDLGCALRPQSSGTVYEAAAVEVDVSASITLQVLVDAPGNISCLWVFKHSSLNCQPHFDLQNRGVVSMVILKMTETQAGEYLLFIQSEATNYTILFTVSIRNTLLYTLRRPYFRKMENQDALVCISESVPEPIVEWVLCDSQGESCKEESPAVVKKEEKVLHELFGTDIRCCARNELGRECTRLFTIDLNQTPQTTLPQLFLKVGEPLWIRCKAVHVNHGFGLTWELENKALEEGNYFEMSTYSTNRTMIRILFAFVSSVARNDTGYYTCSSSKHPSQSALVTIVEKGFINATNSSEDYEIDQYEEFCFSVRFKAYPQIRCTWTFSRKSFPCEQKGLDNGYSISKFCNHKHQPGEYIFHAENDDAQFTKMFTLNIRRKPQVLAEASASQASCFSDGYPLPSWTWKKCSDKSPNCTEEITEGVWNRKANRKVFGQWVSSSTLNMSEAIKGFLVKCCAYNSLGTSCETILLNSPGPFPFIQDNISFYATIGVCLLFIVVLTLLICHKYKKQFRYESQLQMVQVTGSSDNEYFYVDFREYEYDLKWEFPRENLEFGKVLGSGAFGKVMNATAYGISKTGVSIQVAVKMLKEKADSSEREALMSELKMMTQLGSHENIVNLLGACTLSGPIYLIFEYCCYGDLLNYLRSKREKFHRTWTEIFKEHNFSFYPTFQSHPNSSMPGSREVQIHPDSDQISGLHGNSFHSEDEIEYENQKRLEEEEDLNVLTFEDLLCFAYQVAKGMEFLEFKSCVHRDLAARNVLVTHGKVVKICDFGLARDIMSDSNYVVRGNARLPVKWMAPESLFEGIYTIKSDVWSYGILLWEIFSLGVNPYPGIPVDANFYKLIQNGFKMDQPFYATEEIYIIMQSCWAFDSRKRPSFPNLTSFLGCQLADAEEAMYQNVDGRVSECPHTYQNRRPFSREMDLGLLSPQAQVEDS
The test is described as follows: Ba/F3 cell growth inhibition (CellTiter-Glo, 72 hours). Conditions: read-out: Ba/F3 GI50s (μM) FLT3 (ITD). Here is the method: (§3) Seeding 3000 cells per well in a 96-well plate. After cell stabilization, treat the cells with compounds diluted in […] at a ⅓ serial dilution and culture for 72 hours. Following treatment with CellTiter-Glo, luminescence is produced only in the presence of ATP, as luciferase degrades luciferin. Luminescence values were measured using Envision (PerkinElmer). Based on the measured luminescence values, the concentration of compounds causing cell death was calculated to determine the GI50 value.
(§4) The activity values were categorized into three levels. • A: IC50<1 μM • B: 1 μM≤IC50<10 μM, • C: IC50≥10 μM

The subject of test [8] is Ba/F3 parental. The test is described as above. Conditions: Mus musculus, BaF3, Ba/F3 parental cells, read-out: Ba/F3 GI50s (μM) parental. The method, then:
as §3, §4

Bounds are passed on as bounds.

Regarding `O=C1COCCOc2ccc(cc2)-c2ccc3cnc(nn23)Nc2ccc(cc2)OCCCN1` [Example 28, (Z)-5,12,15-trioxa-3,9-diaza-2(7,2)-pyrrolo[2,1-f][1,2,4]triazina-1,4(1,4)-dibenzenacyclopentadecaphan-10-one], the IC50 in test [1] was 1 to 10 µM; in test [2], 1 to 10 µM; in test [3] it was 1 to 10 µM; in test [4] it was 1 to 10 µM; in test [5] it was no less than 10 µM; in test [6], 1 to 10 µM. The IC50 in test [8] was less than 1 µM. The GI50 in test [7] is less than 1 µM.
`O=C1CCCCCCOc2ccc(cc2)-c2ccc3cnc(nn23)Nc2ccc(cc2)OCCCN1` [Example 29, (Z)-5,17-dioxa-3,9-diaza-2(7,2)-pyrrolo[2,1-f][1,2,4]triazina-1,4(1,4)-dibenzenacycloheptadecaphan-10-one]: the IC50 was 1 to 10 µM in test [1]; 1 to 10 µM in test [2]; 1 to 10 µM in test [3]; 1 to 10 µM in test [4]; no less than 10 µM in test [5]; 1 to 10 µM in test [6]. Moreover, in test [8], the IC50 is no less than 10 µM. Moreover, the GI50 in test [7] is less than 1 µM.
Take `c1cc2ccc1Nc1ncc3ccc(n3n1)-c1ccc(cc1)OCCNCCCO2` [Example 30, (Z)-5,12-dioxa-3,9-diaza-2(7,2)-pyrrolo[2,1-f][1,2,4]triazina-1,4(1,4)-dibenzenacyclododecaphane]: the IC50 in test [1], in test [2], in test [3], in test [4], in test [5] and in test [6] was 1 to 10 µM in each case. The IC50 in test [8] is no less than 10 µM. For the same compound, in test [7], the GI50 was less than 1 µM.
For `COc1cc2ccc1Nc1ncc3ccc(n3n1)-c1ccc(cc1)OCCOCC(=O)NCCCO2` [Example 34, (Z)-42-methoxy-5,12,15-trioxa-3,9-diaza-2(7,2)-pyrrolo[2,1-f][1,2,4]triazina-1,4(1,4)-dibenzenacyclopentadecaphan-10-one], the IC50 in test [1] is no less than 10 µM; in test [2], no less than 10 µM; in test [3], no less than 10 µM; in test [4] it was no less than 10 µM; in test [5], 1 to 10 µM; in test [6] it was no less than 10 µM. Also, the IC50 in test [8] was no less than 10 µM. The GI50 in test [7] is 1 to 10 µM.
Turning to `O=C1COCCOc2ccc(cc2)-c2ccc3cnc(nn23)Nc2cnn(c2)CCCN1` [Example 35, (2^1Z,4^4E)-4^1H-11,14-dioxa-3,8-diaza-2(7,2)-pyrrolo[2,1-f1][1,2,4]triazina-4(4,1)-pyrazola-1(1,4)-benzenacyclotetradecaphan-9-one], the IC50 in test [1] was 1 to 10 µM; in test [2] it was 1 to 10 µM; in test [3] it was 1 to 10 µM; in test [4], 1 to 10 µM; in test [5], no less than 10 µM; in test [6], 1 to 10 µM. Further, in test [8], the IC50 was in the range of 1 to 10 µM. Also, the GI50 in test [7] is less than 1 µM.
Consider `O=C1CCCCOc2ccc(cc2)-c2ccc3cnc(nn23)Nc2cnn(c2)CCCN1` [Example 36, (2^1Z,4^4E)-4^1H-14-oxa-3,8-diaza-2(7,2)-pyrrolo[2,1-f][1,2,4]triazina-4(4,1)-pyrazola-1(1,4)-benzenacyclotetradecaphan-9-one], for which the IC50 in test [1] is 1 to 10 µM; in test [2], less than 1 µM; in test [3], 1 to 10 µM; in test [4] it was less than 1 µM; in test [5], no less than 10 µM; in test [6], 1 to 10 µM. Also, the IC50 in test [8] lay within 1 to 10 µM. Moreover, in test [7], the GI50 was less than 1 µM.
Turning to `O=C1CCCCCCOc2ccc(cc2)-c2ccc3cnc(nn23)Nc2cnn(c2)CCCN1` [Example 37, (2^1Z,4^4E)-4^1H-16-oxa-3,8-diaza-2(7,2)-pyrrolo[2,1-f1][1,2,4]triazina-4(4,1)-pyrazola-1(1,4)-benzenacyclohexadecaphan-9-one], the IC50 in test [1] is no less than 10 µM; in test [2] it was 1 to 10 µM; in test [3], no less than 10 µM; in test [4], 1 to 10 µM; in test [5], no less than 10 µM; in test [6], no less than 10 µM. In test [8], the IC50 is no less than 10 µM. In test [7], the GI50 was less than 1 µM.

The record behind these values is patent US20250136614A1, “2,7-SUBSTITUTED PYRROLO[2,1-F][1,2,4]TRIAZINE COMPOUND HAVING PROTEIN KINASE INHIBITORY ACTIVITY” (Magicbullettherapeutics Co., Ltd., priority 2021, published 2025).
